Values of other authors, collected in patent publication US20240066044A1, “METHODS AND COMPOSITIONS FOR INCREASING NAD+ METABOLOME IN HEALTHY MIDDLE-AGED POPULATION” (Bioenergy Life Science, Inc., priority 2021, published 2024).
Read-outs that look alike come from different tables or passages of the source.

Compound: NC(=O)c1cccnc1 [NAM, nicotinamide]
- doses at which NAM is ineffective for boosting NAD+ (NAD+): below 90 mg per day
- daily tolerable upper dietary intake (Canada): 500 mg
- daily tolerable upper dietary intake (EU): 900 mg
- daily tolerable upper dietary intake (Japan): 5 mg/kg
